Assay [1] concerns the target T1, BIR3 domain of XIAP (recombinant XIAP-BIR3, residues 238-358) (Homo sapiens, UniProt P98170).
T1 construct: Recombinant XIAP-BIR3 (residues 238-358); GST (N, cleaved yes); made in house; host or cells: E. coli
Kind of assay: Fluorescence-based competition assay of tetrapeptide libraries (Example 1). Type of assay: binding, mammalian. An excerpt: Expression and Purification of BIR3. […] The soluble fraction of the GST-BIR3 in the E. coli lysate was purified over a glutathione sepharose column, and further purified by anion exchange chromatography (Mono-Q, Amersham Biosciences). The fusion protein was cleaved by thrombin, and the GST portion was removed by the glutathione sepharose column. The BIR3 protein was further purified over a gel filtration column (Superdex 30, Amersham Biosciences).
Fluorescence Experiments. Luminescence spectra were recorded using a Photon Technologies, Inc. fluorometer with a Xe arc lamp and a PMT detector. […] The buffer used in all of the fluorescence experiments was 50 mM potassium phosphate, 100 mM NaCl, 2 mM 1,4-dithio-DL-threitol (DTT), pH 7.
Assay of Tetrapeptide Libraries. The samples were prepared in a 96 well plate lined with glass tubes, to prevent adsorption of the dye to plastic. The plate was stored on ice in the dark between measurements. […] 390 μL of this stock solution were added to 50 wells of the 96 well plate. 50 μL of the test tetrapeptide solutions were added and mixed immediately prior to taking the emission spectra. The final solutions were 5 μM in both badan and BIR3, and approximately 20-30 μM in the tetrapeptide solutions. […] 50 μL of water was added to these wells, again as controls, to determine the intensity of the unbound dye.
The binding of various tetrapeptide mimics to the BIR3 domain of XIAP was determined using a fluorescence-based competition assay. The assay is based on an environment-sensitive fluorogenic dye molecule, badan. Badan is a dye whose sensitivity to environmental changes has previously been used to probe protein binding interactions. […] As the dye is displaced from the binding pocket by the test molecule, the emission shifts back towards the aquated spectrum.

Another assay has as its target T2, BIR3 domain of XIAP (Homo sapiens, UniProt P98170).
T2 construct: Recombinant XIAP-BIR3 (residues 238-358); GST (N, cleaved yes); made in house; host or cells: E. coli
Kind of assay: Fluorescence displacement assay: AVPC-badan displaced from BIR3 by test tetrapeptide (typical assay, Tables 1 and 2). Format: binding, mammalian. Conditions: for Intensity (470 nm): emission intensity of AVPC-badan with BIR3 and test tetrapeptide, excitation 387 nm, lower = more dye displaced; for Fraction free: fraction of AVPC-badan free (displaced from BIR3), from intensity at 470 nm; for K: binding (equilibrium) constant for displacement of AVP-dye, position-4 library, 5 μM dye and protein, larger = greater affinity. An excerpt:
The ability to quickly assay small molecules for their effectiveness in disrupting protein-protein interactions is critical to the development of viable drug candidates. One aspect of the present invention comprises an assay to test the binding affinity of a library of tetrapeptide molecules for the BIR3 domain of an inhibitor of apoptosis protein (LAP), particularly the mammalian XIAP. The assay is based on a detectable label, preferably a fluorogenic dye molecule. In preferred embodiments, the fluorophore is attached to a tripeptide, AVP, whose sequence matches the N-terminal three residues of Smac. The general structure of this molecule, therefore, is AVP[X], wherein X is the fluorophore. The molecule is referred to herein as an “AVP-dye”. The AVP-dye packs into the groove of the BIR3, causing a large shift in emission maximum and intensity when the environment of the dye changes from water to the hydrophobic pocket of the protein. If a molecule (e.g. the native Smac protein or a tetrapeptide mimic) displaces the dye, then emission will shift back to the spectrum observed in water. Since the emission intensity is related to the binding of the tetrapeptide, the intensity can be used to estimate the equilibrium constant, K, for displacement of the AVP-dye by the tetrapeptide. The larger the equilibrium constant, the greater affinity the tetrapeptide has for the BIR3.
The aforementioned AVP-dye is used in an assay of test compounds that may, like the Smac tetrapeptide AVPI, bind to the BIR3 domain of XIAP, thereby relieving XIAP-mediated suppression of apoptosis. This is a high-throughput, cell-free assay, that is assembled as follows. A protein comprising the BIR3 domain of an IAP is placed in an assay medium comprising a suitable buffer, as described above. Preferably, this is a recombinant protein comprising the BIR3 domain, but a full IAP protein also may be used. An aliquot of the AVP-dye is added to the reaction mixture, in the presence of the test compound. Controls comprise the BIR3 and the dye in the absence of the test compound and, optionally, BIR3 and the dye in the presence of the naturally occurring tetrapeptide, AVPI. […] Alternatively, a emission spectrum is measured at the selected excitation wavelength. In one type of measurement, the test compound is added and an emission spectrum is measured by scanning from, e.g., 460-480 nm. In another type of measurement, the emission intensity at a particular wavelength, e.g., 470 nm, is measured. […] Thus, the binding affinity of the test compound may be calculated as a function of its ability to displace the dye from the BIR3 domain, according to the following calculation: [formula]
Stock solution of badan, BIR3, and buffer were mixed: 2.5 ml of badan, 1.75 ml BIR3, and 15.25 ml of buffer were mixed in a glass vial which had been chilled to 4° C. Added 390 μL of the stock solution to 50 wells in the pre-chilled 96 well plate (wells A1-E2).
Stock solution of badan and buffer were mixed: 150 μL badan and 1020 μL of buffer were mixed in a small glass vial (also chilled) and added to 3 wells on the plate in 390 μL aliquots (F1-F3).
The 96 well plate was stored over ice in an insulated bucket while the emission spectra of the samples were taken. Fifty μL of the appropriate test solution (or water, for the control experiments) was added with a micropipet, the solution mixed with a Pasteur pipet before adding the sample to the fluorescence cuvette. While one sample was being scanned, the cuvette from the previous scan was washed with EtOH and then next sample was prepared.

Assay [2] has as its target Recombinant XIAP-BIR3 (residues 238-358) (UniProt P98170). The assay is described as follows: fluorescence competition, displacement of AVPC-badan from BIR3.
Assay [3] deals with T3, Recombinant XIAP-BIR3 (residues 238-358) (UniProt P98170 238-358).
T3 construct: also called BIR3 domain of XIAP; BIR3 protein
The description is as above.
Description: The samples were prepared in a 96 well plate lined with glass tubes, to prevent adsorption of the dye to plastic. The plate was stored on ice in the dark between measurements. A small volume cuvette, with a path length of 2 mm, was used to collect the emission spectra. […] 390 μL of this stock solution were added to 50 wells of the 96 well plate. 50 μL of the test tetrapeptide solutions were added and mixed immediately prior to taking the emission spectra. […] 50 μL of water was added to these wells, again as controls, to determine the intensity of the unbound dye.
The binding of various tetrapeptide mimics to the BIR3 domain of XIAP was determined using a fluorescence-based competition assay. […] As the dye is displaced from the binding pocket by the test molecule, the emission shifts back towards the aquated spectrum.

Residues, ends and D or L forms follow the SMILES beside them.

T3 sequence (P98170 238-358 limits assumed): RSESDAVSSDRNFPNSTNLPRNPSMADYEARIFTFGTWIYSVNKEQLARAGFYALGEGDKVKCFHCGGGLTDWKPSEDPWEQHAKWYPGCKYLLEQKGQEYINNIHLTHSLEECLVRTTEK
T1 sequence (P98170 238-358): as the sequence (P98170 238-358 limits assumed) above
T2 sequence (P98170 238-358): as the sequence (P98170 238-358 limits assumed) above
Sequence of Recombinant XIAP-BIR3 (residues 238-358) (UniProt P98170) (P98170 238-358 limits assumed): as above

Turning to `CC[C@H](C)[C@H](NC(=O)[C@@H]1CCCN1C(=O)[C@H](CCCNC(=N)N)NC(=O)[C@H](C)N)C(N)=O` [ARPI], the Kd – broadly, the equilibrium constant for the complex coming apart – in assay [1] came to 180 nM. For the same molecule, on BIR3 domain of XIAP, the “Intensity (470 nm)” value is listed as 29455 and the Fraction free is given as 0.9125. For `CC(C)[C@H](NC(=O)[C@H](C)N)C(=O)N1CCC[C@H]1C(=O)N[C@@H](Cc1ccc(O)cc1)C(N)=O` [AVPY] (H-AVPY-NH2; N-terminus and C-terminus assumed), in assay [1], the dissociation constant (Kd) came to 300 nM. Moreover, on BIR3 domain of XIAP, the K came out at 1.1692, the “Intensity (470 nm)” value was 39093 and the Fraction free worked out at 0.8657. The matching figures for `CC(C)[C@H](NC(=O)[C@H](C)N)C(=O)N1CCC[C@H]1C(=O)N[C@@H](Cc1c[nH]c2ccccc12)C(N)=O` [AVPW] (H-AVPW-NH2; N-terminus and C-terminus assumed): 110 nM, 1.0817, 23435 and 0.9418. Consider `CC[C@H](C)[C@H](NC(=O)[C@@H]1CCCN1C(=O)[C@H](Cc1c[nH]cn1)NC(=O)[C@H](C)N)C(N)=O` [AHPI] (H-AHPI-NH2; N-terminus and C-terminus assumed), for which the Kd in assay [1] is 330 nM. Besides, on BIR3 domain of XIAP, the “Intensity (470 nm)” value was 41450 and the Fraction free is 0.8543. As for `CC(C)[C@H](NC(=O)[C@H](C)N)C(=O)N1CCC[C@H]1C(=O)N[C@@H](CCC(=O)O)C(N)=O` [AVPE] (H-AVPE-NH2; N-terminus and C-terminus assumed), in assay [1], the dissociation constant Kd is 93000 nM. The same molecule gave a K at BIR3 domain of XIAP of 0.03709. Turning to `CC(C)[C@H](NC(=O)[C@H](C)N)C(=O)N1CCC[C@H]1C(=O)N[C@@H](CO)C(N)=O` [AVPS] (H-AVPS-NH2; N-terminus and C-terminus assumed), the Kd in assay [1] is 4400 nM. The molecule further returned a K on BIR3 domain of XIAP of 0.01304. In the case of `CC(C)[C@H](NC(=O)[C@H](C)N)C(=O)N1CCC[C@H]1C(=O)N[C@@H](CS)C(N)=O` [AVPC, Ala-Val-Pro-Cys-NH2], in assay [1], the Kd stood at 1400 nM. At BIR3 domain of XIAP, this molecule came in with a K of 0.1034. Consider `CC(C)C[C@H](NC(=O)[C@@H]1CCCN1C(=O)[C@@H](NC(=O)[C@H](C)N)C(C)C)C(N)=O` [AVPL] (H-AVPL-NH2; N-terminus and C-terminus assumed), for which the Kd in assay [1] came to 490 nM. Moreover, on BIR3 domain of XIAP, the K is 0.3423. For `CC(C)[C@H](NC(=O)[C@H](C)N)C(=O)N1CCC[C@H]1C(=O)N1CCC[C@H]1C(N)=O` [AVPP] (H-AVPP-NH2; N-terminus and C-terminus assumed), in that order: 5700 nM and 0.01069. `CC(C)[C@H](NC(=O)[C@H](C)N)C(=O)N1CCC[C@H]1C(=O)N[C@@H](Cc1c[nH]cn1)C(N)=O` [AVPH] (H-AVPH-NH2; N-terminus and C-terminus assumed): the Kd in assay [1] was 7300 nM. Besides, the K on BIR3 domain of XIAP amounted to 0.07521. AbuVPI (peptide): in assay [2], the Fraction free came out at 0.887 and the Intensity (470 nm) came to 34800.

Take `CC(C)[C@H](NC(=O)[C@H](C)N)C(=O)N1CCC[C@H]1C(=O)N[C@@H](CC(=O)O)C(N)=O` [AVPD] (H-AVPD-NH2; N-terminus and C-terminus assumed): in assay [1], the Kd amounted to 7300 nM. The molecule further gave a K on BIR3 domain of XIAP of 0.1799. The matching figures for `CC(C)[C@H](NC(=O)[C@H](C)N)C(=O)N1CCC[C@H]1C(=O)N[C@@H](CCCCN)C(N)=O` [AVPK] (H-AVPK-NH2; N-terminus and C-terminus assumed): 28000 nM and 0.00702. For `CC(C)[C@H](NC(=O)[C@H](C)N)C(=O)N1CCC[C@H]1C(=O)NCC(N)=O` [AVPG] (H-AVPG-NH2; N-terminus and C-terminus assumed), in that order: 4700 nM and 0.08948. With ALPI (Synthetic tetrapeptide), in assay [3], the Kd was 290 nM.

On to AFPI (Synthetic tetrapeptide), for which the Kd in assay [3] came out at 790 nM. Consider AIPI (Synthetic tetrapeptide), for which the Kd in assay [3] is 390 nM. For AKPI (Synthetic tetrapeptide), the equilibrium dissociation constant (Kd) in assay [3] is 570 nM. With ACPI (Synthetic tetrapeptide), in assay [3], the Kd was found to be 650 nM.

As to AMPI (Synthetic tetrapeptide), the Kd in assay [3] stood at 730 nM.

For AQPI (Synthetic tetrapeptide), the Kd in assay [3] worked out at 940 nM. AYPI (Synthetic tetrapeptide): the Kd in assay [3] is 590 nM.

For the origin of these results see patent US20050176649A1, “Iap binding peptides and assays for identifying compounds that bind iap” (priority 2001, published 2005).
